What follows are molecules tested against T1, p38a activated, mitogen-activated protein kinase-activated protein kinase 2 (MAPKAP-K2 or MK2) enzyme (Homo sapiens, UniProt P49137) (assay: MK2 OMNIA biochemical assay (AssayQuant continuous-read kinase assay)). Conditions: [MK-2]=0.05 nM, [ATP]=100 μM, [AQT0425]=10 μM.
T1 construct: purchased Invitrogen PV3317
Summary of the method: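 Continuous fluorescence read (ex 360/em 485) of p38a-activated MK2 phosphorylating Sox-conjugated peptide AQT0425 in 50 mM HEPES pH 7.5, 10 mM MgCl2, 1 mM DTT; reads every 71 s for 240 min at room temperature. IC50 from initial linear slopes; apparent Kinact from single-exponential Vobs fits.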

T1 sequence (P49137 whole entry): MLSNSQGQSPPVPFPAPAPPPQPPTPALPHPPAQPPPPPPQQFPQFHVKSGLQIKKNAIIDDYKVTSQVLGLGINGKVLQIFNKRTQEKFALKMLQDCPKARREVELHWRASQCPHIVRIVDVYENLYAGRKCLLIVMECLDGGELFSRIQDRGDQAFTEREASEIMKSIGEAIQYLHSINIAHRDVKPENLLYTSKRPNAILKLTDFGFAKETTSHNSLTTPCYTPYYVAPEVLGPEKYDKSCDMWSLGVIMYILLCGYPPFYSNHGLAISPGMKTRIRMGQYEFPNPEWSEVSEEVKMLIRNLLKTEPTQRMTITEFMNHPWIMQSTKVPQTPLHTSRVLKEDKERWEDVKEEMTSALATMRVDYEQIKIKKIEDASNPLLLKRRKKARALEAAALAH

IC50	SMILES
< 150 nM	C[C@@H]1CNc2c(sc3ccc4nc(-n5cc(C6CN(CCN7CCN(c8ccc(C9CCC(=O)NC9=O)cc8)CC7)C6)nn5)ccc4c23)C(=O)N1 (stereo partly drawn) [Ex 53, 3-(4-(4-(2-(3-(1-((R)-10-Methyl-8-oxo-9,10,11,12-tetrahydro-8H-[1,4]diazepino[5′,6′:4,5]thieno[3,2-f]quinolin-3-yl)-1H-1,2,3-triazol-4-yl)azetidin-1-yl)ethyl)piperazin-1-yl)phenyl)piperidine-2,6-dione]
< 150 nM	C[C@@H]1CNc2c(sc3ccc4nc(-n5cc(C6CN(CCN7CCC(c8ccc(C9CCC(=O)NC9=O)cc8)CC7)C6)nn5)ccc4c23)C(=O)N1 (stereo partly drawn) [Ex 54, 3-(4-(1-(2-(3-(1-((R)-10-Methyl-8-oxo-9,10,11,12-tetrahydro-8H-[1,4]diazepino[5′,6′:4,5]thieno[3,2-f]quinolin-3-yl)-1H-1,2,3-triazol-4-yl)azetidin-1-yl)ethyl)piperidin-4-yl)phenyl)piperidine-2,6-dione]
501 to 1000 nM	C[C@@H]1COc2c(sc3ccc4nc(C#CC5CCN(C(=O)C(=O)N6CCN(c7ccc(C8CCC(=O)NC8=O)cc7)CC6)CC5)ccc4c23)C(=O)N1 (stereo partly drawn) [Ex 55, 3-(4-(4-(2-(4-(((R)-10-Methyl-8-oxo-8,9,10,11-tetrahydro-[1,4]oxazepino[7′,6′:4,5]thieno[3,2-f]quinolin-3-yl)ethynyl)piperidin-1-yl)-2-oxoacetyl)piperazin-1-yl)phenyl)piperidine-2,6-dione]
